Consider nine molecules from patent US9550796B2, “Pyrrolopyrrolone derivatives and their use as BET inhibitors” (NOVARTIS AG, priority 2013, dated 2017).

The target in one test is BRD4-NUT-fusion (Homo sapiens, UniProt O60885). Briefly: Nut-foci formation assay in HCC2494 NUT midline carcinoma cells. Format: cell-based. As to conditions: 24 hours, nuclear BRD4-NUT foci by immunofluorescence microscopy, read-out: HCS Brd4-NUT IC50. On the procedure: Nut-Foci Formation Assay […] Compound-mediated inhibition of BRD4 activity can be monitored by quantification of the number and intensity of nuclear BRD4-NUT foci using automated immunofluorescence microscopy. Briefly, 5000 cells in 20 μL fresh medium are seeded into Poly-D-Lysine-precoated 384-well plates and incubated overnight at 37° C. and 5% CO2, followed by addition of 5 μl medium containing compound dilutions at 5-fold their final intended concentration. […] Assay plates can be imaged using the appropriate filter sets on the Cellomics VTi automated fluorescence microscopy platform (ThermoFisher Scientific) and the population average of the number of NUT-foci per nucleus is quantified using the Cellomics Spot Detection BioApplication image analysis algorithm (ThermoFisher Scientific). […] Compound concentrations leading to half-maximal (IC50) inhibition of the aforementioned readout parameters are determined using standard four parameter curve fitting.

For the next test, the target named is CREBBP (Homo sapiens (Human), UniProt Q92793). Briefly: AlphaScreen in-vitro binding assay for CREBBP. The following applies: 324 nM His-CREBBP (1081-1197), acetyl-histone H4 (AcK 5, 8, 12) peptide. A digest of the protocol: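 IC50 values were derived by non-linear regression of percent inhibition across 8 compound concentrations. Protein was His-tagged CREBBP bromodomain (1081-1197), peptide acetyl-histone H4 (AcK 5, 8, 12), in HEPES pH 7.5 buffer. Read-out was AlphaScreen with Ni-chelate acceptor and streptavidin donor beads, 35 min at 30° C then 60 min at RT.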
In general terms: Bead proximity is the source of the signal in Alpha formats.

The next test addresses BRD3 (Homo sapiens (Human), UniProt Q15059). Put plainly: TR-FRET in-vitro binding assay for BRD3. As to conditions: 45 nM His-Brd3(20-477), acetyl-histone H4 (AcK 5, 8, 12, 16) peptide. The method in brief: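 Incubation at 30° C lasted 35 min, followed by TR-FRET measurement; each compound was tested as 8 single-point concentrations.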

CREBBP, sequence (Q92793 1081-1197): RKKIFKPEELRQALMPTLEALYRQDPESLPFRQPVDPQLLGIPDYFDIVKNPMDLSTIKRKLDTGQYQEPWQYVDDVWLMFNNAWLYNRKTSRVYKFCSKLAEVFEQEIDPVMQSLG
BRD3, sequence (Q15059 20-477): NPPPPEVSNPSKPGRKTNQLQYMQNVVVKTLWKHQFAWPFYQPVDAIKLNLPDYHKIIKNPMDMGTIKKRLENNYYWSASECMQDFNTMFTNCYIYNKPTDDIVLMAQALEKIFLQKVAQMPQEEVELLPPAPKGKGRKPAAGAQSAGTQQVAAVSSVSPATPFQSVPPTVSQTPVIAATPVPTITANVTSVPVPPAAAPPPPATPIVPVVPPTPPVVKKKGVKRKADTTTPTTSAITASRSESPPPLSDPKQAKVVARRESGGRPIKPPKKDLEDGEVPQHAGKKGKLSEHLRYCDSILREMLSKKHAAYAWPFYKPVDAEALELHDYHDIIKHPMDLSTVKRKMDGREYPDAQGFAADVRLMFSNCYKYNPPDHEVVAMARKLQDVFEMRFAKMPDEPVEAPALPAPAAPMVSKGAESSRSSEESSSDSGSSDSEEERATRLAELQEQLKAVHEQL

Broadly, the IC50 is the midpoint of a concentration-inhibition curve. In the case of `COc1ncc(-c2cc3c(n2C)[C@@H](c2ccc(Cl)cc2)N(c2cc(C)c(=O)n(C)c2)C3=O)c(OC)n1` [Example 54, (R)-6-(4-chlorophenyl)-2-(2,4-dimethoxypyrimidin-5-yl)-5-(1,5-dimethyl-6-oxo-1,6-dihydropyridin-3-yl)-1-methyl-5,6-dihydropyrrolo[3,4-b]pyrrol-4(1H)-one], the IC50 at BRD4-NUT-fusion turned out to be 26.7 nM; on CREBBP, 91 nM; on BRD3, 28 nM.
As to `COc1ncc(-c2cc3c(n2C)[C@@H](c2ccc(Cl)cc2)N(c2cc(C)c(=O)n(C)c2)C3=O)cn1` [Example 56, (R)-6-(4-chlorophenyl)-5-(1,5-dimethyl-6-oxo-1,6-dihydropyridin-3-yl)-2-(2-methoxypyrimidin-5-yl)-1-methyl-5,6-dihydropyrrolo[3,4-b]pyrrol-4(1H)-one], the results for the IC50 at BRD4-NUT-fusion, at CREBBP and on BRD3 were 39.1 nM, 130 nM and 22 nM, respectively.
Take `COc1ncc(-c2cc3c(n2C)C(c2ccc(Cl)cc2)N(c2cc(Cl)c(=O)n(C)c2)C3=O)c(OC)n1` (stereo not drawn) [Example 38, 5-(5-chloro-1-methyl-6-oxo-1,6-dihydropyridin-3-yl)-6-(4-chlorophenyl)-2-(2,4-dimethoxypyrimidin-5-yl)-1-methyl-5,6-dihydropyrrolo[3,4-b]pyrrol-4(1H)-one]: the results for the IC50 on BRD4-NUT-fusion, at CREBBP and on BRD3 were 72.5 nM, 205 nM and 59 nM, respectively.
As to `Cn1ccc2c1[C@@H](c1ccc(Cl)cc1)N(c1cc(Cl)c(=O)n(C)c1)C2=O` [Example 77, (R)-5-(5-chloro-1-methyl-6-oxo-1,6-dihydropyridin-3-yl)-6-(4-chlorophenyl)-1-methyl-5,6-dihydropyrrolo[3,4-b]pyrrol-4(1H)-one], the results for the IC50 on BRD4-NUT-fusion, on CREBBP and at BRD3 were 10.1 nM, 1300 nM and 94.5 nM, respectively.
Consider `Cc1cn(C)c2c1C(=O)N(c1cc(C)c(=O)n(C)c1)C2c1ccc(Cl)cc1` (stereo not drawn) [Example 34, 6-(4-chlorophenyl)-5-(1,5-dimethyl-6-oxo-1,6-dihydropyridin-3-yl)-1,3-dimethyl-5,6-dihydropyrrolo[3,4-b]pyrrol-4(1H)-one], for which the results for the half-inhibitory concentration (IC50) at BRD4-NUT-fusion, at CREBBP and on BRD3 were 26.8 nM, 1900 nM and 32 nM, respectively.
For `Cc1cn(C)c2c1C(=O)N(c1cc(C)c3nnc(C)n3c1)C2c1ccc(Cl)cc1` (stereo not drawn) [Example 33, 6-(4-chlorophenyl)-5-(3,8-dimethyl-[1,2,4]triazolo[4,3-a]pyridin-6-yl)-1,3-di methyl-5,6-dihydropyrrolo[3,4-b]pyrrol-4(1H)-one] the same measures were 9.55 nM, 10100 nM and 35 nM.
For the molecule `Cc1cc(N2C(=O)c3cc(-c4ccn(C)c(=O)c4)n(C)c3C2c2ccc(Cl)cc2)cn(C)c1=O` (stereo not drawn) [Example 45, 6-(4-chlorophenyl)-5-(1,5-dimethyl-6-oxo-1,6-dihydropyridin-3-yl)-1-methyl-2-(1-methyl-2-oxo-1,2-dihydropyridin-4-yl)-5,6-dihydropyrrolo[3,4-b]pyrrol-4(1H)-one], the figures for the IC50 at BRD4-NUT-fusion, at CREBBP and on BRD3 were 97.3 nM, 370 nM and 18.5 nM, respectively.
Consider `Cn1c(-c2ccc(=O)n(C)c2)cc2c1C(c1ccc(Cl)cc1)N(c1cc(Cl)c(=O)n(C)c1)C2=O` (stereo not drawn) [Example 42, 5-(5-chloro-1-methyl-6-oxo-1,6-dihydropyridin-3-yl)-6-(4-chlorophenyl)-1-methyl-2-(1-methyl-6-oxo-1,6-dihydropyridin-3-yl)-5,6-dihydropyrrolo[3,4-b]pyrrol-4(1H)-one], for which the IC50 amounted to 4970 nM on BRD4-NUT-fusion, 310 nM on CREBBP and 53 nM on BRD3.
As to `Cc1cc2c(n1C)[C@@H](c1ccc(Cl)cc1)N(c1cc(Cl)c(=O)n(C)c1)C2=O` [Example 75, (R)-5-(5-chloro-1-methyl-6-oxo-1,6-dihydropyridin-3-yl)-6-(4-chlorophenyl)-1,2-dimethyl-5,6-dihydropyrrolo[3,4-b]pyrrol-4(1H)-one], the IC50 at BRD4-NUT-fusion was found to be 11.2 nM; at CREBBP, 790 nM; on BRD3, 53.3 nM.
